Measured values published in patent publication US20100196995A1, “Systems and methods for maintaining the dominance and increasing the biomass production of nannochloropsis in an algae cultivation system” (priority 2009, published 2010).
Marks after values point to notes of the source that are not given here.

Legend:
Assay type in all cases: cell-based
Nannochloropsis [1] = assay: Example One: pond culture passed through ozone generator, effect on Nannochloropsis
Experimental: (§1) In the following examples, Nannochloropsis was grown in outdoor, open, three-square meter ponds in Vero Beach, Florida. The climate in Vero Beach is semitropical, with mild, cool winters and hot, humid summers. It is a challenging climate for keeping outdoor algal cultures stable and productive. The overnight warmth encourages predation by protozoa, rotifers, and crustaceans. The humidity allows the airborne transport of competing algae, and thus increases the rate of invasion.
(§2) Ozone was added to an algal cultivation system using a commercial ozone generator with accompanying liquid pump, venturi, and air dryer. The machine used was a small model capable of generating 10 grams of ozone per hour. The flow rate of liquid through the generator was about 16 liters per minute. At fifty percent (50%) of maximal ozone generation, the concentration of ozone in the liquid after one pass through the ozone generator was 4.6 mg/L, and at 100% was 9.6 mg/L.
(§3) Two three-square meter ponds were started by taking 500L of culture from a larger pond and passing it through the ozone generator once. One pond was started with the ozonator setting at 50%, the other pond was started with the ozonator setting at 100%. The original algal culture had numerous clumps of Nannochloropsis, cell debris, various diatoms, and some ciliated protozoa grazers.
The two algal cultures were allowed to grow for two days without dilution, but with nutrient addition to see whether the ozone treatment changed the production of biomass and the subsequent stability of the cultures. After two days of batch growth, each pond was diluted one third per day and recirculated each day through the ozone generator for 30 minutes. During this time period about 500L, or one volume equivalent was treated. As before, one pond was passed through the machine at 50% setting and one at 100% setting.

diatoms [2] = assay: Example One: pond culture passed through ozone generator, effect on diatoms; settings: ozonator setting 50% (4.6 mg/L) or 100% (9.6 mg/L)
Experimental: as §1, §2, §3

[3] = test system: ciliated protozoa grazers; assay: Example One: pond culture passed through ozone generator, effect on grazers; settings: ozonator setting 50% (4.6 mg/L) or 100% (9.6 mg/L)
Experimental: as §1, §2, §3

Nannochloropsis [4] = assay: Example Two: ozone skid tests on outdoor ponds D4, MP1, 25A, Nannochloropsis productivity and resistance
Experimental: as §1
(§4) An ozone skid was assembled on-site utilizing a dry air feed ozone generator capable of producing 10 g/h of ozone.
(§5) A small pump was connected to the system with the ozone added to the liquid recycle line via a Mazzei gas to liquid injector capable of flow rates between 13.2-28.35 1pm@pressures ranging from 15-25 psi. Tests were run on ponds D4 (3 m^2 surface area), MP1 (3 m^2 surface area), and 25A (25 m^2 surface area) with salinities ranging from 20-24 ppt using flow rates of 13.2 and 15.6 1pm@20 psi. The ozonator is equipped with a variable transformer that offers the ability to vary ozone dosage between 0-100%. Tests were run at ozone concentrations of 25%, 50%, 75%, and 100% at flow rates of 13.2 and 15.6 1pm.
Productivity results of the three pond systems run at the high concentrations are listed below:
(§6) Nannochloropsis was unaffected by ozone at these dosages.
(§7) Using the skid mounted system as an in-situ transfer treatment to inoculate new ponds was also tested with very favorable results. Both D4 (3 m^2) and MP1 (3 m^2) were filled with ozone treated inoculums from one of the larger ponds that had large amounts of clumps and decreasing productivity. The effect of this was that most of the clumps (>80%) were broken up and the grazers present inside of the clumps were destroyed as well as free grazers and diatoms in the solution with no effect on Nannochloropsis.

diatoms [5] = assay: Example Two: ozone skid tests on outdoor ponds, ozone disinfection of diatoms
Experimental: as §1, §4, §5, §6, §7

grazers = assay: Example Two: ozone skid tests on outdoor ponds, ozone disinfection of grazers
Experimental: as §1, §4, §5, §6, §7

Nannochloropsis [6] = assay: Exposure of Nannochloropsis cultures to extremely high (shock) levels of ozone; settings: above 30 milligrams/liter ozone, exposure not prolonged
From the text: At alternative step 135, if the level or amount of predators and/or invaders exceeds an actual or desired level, the ozone concentration of the algae cultivation system may be adjusted by applying an effective “shock” amount of ozone. The ozone concentration of the algae cultivation system may be adjusted via the inlet stream that feeds into the algae cultivation system. Applying an effective shock amount of ozone to the inlet stream may result in an initial ozone concentration of the inlet stream above 10 milligrams/liter, which feeds into the algae cultivation system. An unexpected result observed via the experiments described herein is that Nannochloropsis cultures exposed to extremely high levels of ozone (above 30 milligrams/liter) recover (i.e., the Nannochloropsis cultures were not killed), provided the exposure to the ozone is not prolonged. […] Note: steps 130 and 135 may be performed in alternating or rotating fashion, provided the ozone concentration is properly observed.

[7] = 25 m^2 pond 25A, side stream treated
[8] = in-situ transfer treatment of inoculums for D4 and MP1
[9] = 3 m^2 ponds D4 and MP1, concentrations of ozone tested

For `O=[O+][O-]` [Ozone, ozone], the “Survival of Nannochloropsis after one pass through the ozone generator” value (Nannochloropsis [1]; 500L culture, one pass, ozonator setting 50% (4.6 mg/L) or 100% (9.6 mg/L)) was “only single cells of Nannochloropsis survived”, the “Ill effects from the ozone on Nannochloropsis ponds” value (Nannochloropsis [1]; both ponds (50% and 100% setting), daily 30 minute recirculation for three days) was “no ill effects” and the “Production of biomass above that of a control pond” value (Nannochloropsis [1]; both ponds (50% and 100% setting), recirculated 30 minutes per day through ozone generator for three days, diluted one third per day) was 20%. The “Clumps of Nannochloropsis after one pass through the ozone generator” value (Nannochloropsis [1]; one pass, ozonator setting 50% (4.6 mg/L) or 100% (9.6 mg/L)) was “completely broken up”, the “Diatoms after one pass through the ozone generator” value (diatoms [2]) was “killed” and the “Grazers after one pass through the ozone generator” value [3] was “killed”. The “Effect of ozone on Nannochloropsis” value (Nannochloropsis [4]; 3 m^2 ponds D4 and MP1, at these dosages) was “unaffected”, the “Clumping after exposure to ozone” value (Nannochloropsis [4]; [7]) was “clumping did not become as dramatic of a problem” and the Productivity (Nannochloropsis [4]; Pond 25A (25 m^2), Jul. 09, 2008, total 5950 mg O3, 5615 liters recycled) was 16.1 g/m^2/day. The Productivity (Nannochloropsis [4]; Pond 25A (25 m^2), Jul. 10, 2008, total 5950 mg O3, 5615 liters recycled) was 4.6 g/m^2/day, the Productivity (Nannochloropsis [4]; Pond 25A (25 m^2), Jul. 11, 2008, total 5950 mg O3, 5615 liters recycled, pond temperature reached 39° C.) was −8.3* g/m^2/day and the Productivity (Nannochloropsis [4]; Pond 25A (25 m^2), Jul. 12, 2008, total 5950 mg O3, 5615 liters recycled) was 12.2 g/m^2/day. It also gave a Productivity (Nannochloropsis [4]; Pond 25A (25 m^2), Jul. 13, 2008, total 5950 mg O3, 5615 liters recycled) of 10.7 g/m^2/day, a Productivity (Nannochloropsis [4]; Pond 25A (25 m^2), Jul. 14, 2008, total 5950 mg O3, 5615 liters recycled) of 8.0 g/m^2/day and a Productivity (Nannochloropsis [4]; Pond D4 (3 m^2), Jul. 09, 2008, total 500 mg O3, 470 liters recycled) of 15.4 g/m^2/day. It also gave a Productivity (Nannochloropsis [4]; Pond D4 (3 m^2), Jul. 10, 2008, total 500 mg O3, 470 liters recycled) of 16.1 g/m^2/day, a Productivity (Nannochloropsis [4]; Pond D4 (3 m^2), Jul. 11, 2008, total 500 mg O3, 470 liters recycled) of 16.0 g/m^2/day and a Productivity (Nannochloropsis [4]; Pond D4 (3 m^2), Jul. 12, 2008, total 500 mg O3, 470 liters recycled) of 8.4 g/m^2/day. The Productivity (Nannochloropsis [4]; Pond D4 (3 m^2), Jul. 13, 2008, total 500 mg O3, 470 liters recycled) was 12.2 g/m^2/day, the Productivity (Nannochloropsis [4]; Pond D4 (3 m^2), Jul. 14, 2008, total 500 mg O3, 470 liters recycled) was 14.9 g/m^2/day and the Productivity (Nannochloropsis [4]; Pond MP1 (3 m^2), Jul. 09, 2008, total 500 mg O3, 470 liters recycled) was 13.3 g/m^2/day. The Productivity (Nannochloropsis [4]; Pond MP1 (3 m^2), Jul. 10, 2008, total 500 mg O3, 470 liters recycled) was 17.2 g/m^2/day, the Productivity (Nannochloropsis [4]; Pond MP1 (3 m^2), Jul. 11, 2008, total 500 mg O3, 470 liters recycled) was 16.9 g/m^2/day and the Productivity (Nannochloropsis [4]; Pond MP1 (3 m^2), Jul. 12, 2008, total 500 mg O3, 470 liters recycled) was 9.0 g/m^2/day. For the same compound, the Productivity (Nannochloropsis [4]; Pond MP1 (3 m^2), Jul. 13, 2008, total 500 mg O3, 470 liters recycled) was 16.0 g/m^2/day, the Productivity (Nannochloropsis [4]; Pond MP1 (3 m^2), Jul. 14, 2008, total 500 mg O3, 470 liters recycled) was 13.4 g/m^2/day and the “Effect on Nannochloropsis” value (Nannochloropsis [4]; [8]) was “no effect”. For the same compound, the Clumps broken up (Nannochloropsis [4]; in-situ transfer treatment: D4 and MP1 filled with ozone treated inoculums from a larger pond with large amounts of clumps) was greater than 80%, the “Clump formation after daily repeated exposure to ozone” value (Nannochloropsis [4]; small 3 m^2 ponds D4 and MP1) was “clumps did form in large numbers” and the “Effect of ozone exposure on diatoms present” value (diatoms [5]; [9]) was “adversely affected after exposure to ozone resulting in their elimination”. The “Effect of ozone exposure on diatoms” value (diatoms [5]; [7]) was “similarly affected”, the “Free diatoms in the solution” value (diatoms [5]; [8]) was “destroyed” and the “Effect of ozone exposure on grazers present” value (grazers; [9]) was “adversely affected after exposure to ozone resulting in their elimination”. The “Effect of ozone exposure on grazers” value (grazers; [7]) was “similarly affected”, the “Grazers inside of the clumps and free grazers in the solution” value (grazers; [8]) was “destroyed” and the “Outcome of Nannochloropsis cultures after extremely high levels of ozone” value (Nannochloropsis [6]) was “recover”.
